Two molecules from ChEMBL document CHEMBL4814069, “Nucleotide analogues containing a pyrrolidine, piperidine or piperazine ring: Synthesis and evaluation of inhibition of plasmodial and human 6-oxopurine phosphoribosyltransferases and in vitro antimalarial activity” (Eur J Med Chem, 2021) can be followed below.

A word on the IC50: it is the midpoint of a concentration-inhibition curve.

Data set [1] deals with Plasmodium falciparum. Briefly: Antimalarial activity against asexual stage of chloroquine-resistant Plasmodium falciparum W2 infected in human erythrocytes assessed as parasite growth inhibition measured after 96 hrs by [3H]-hypoxanthine incorporation assay. It counts as functional, organism-based.
Data set [2] can be described thus: Cytotoxicity against human NHDF cells assessed as cell viability at 100 uM incubated for 72 hrs by Celltiter-Glo assay. In kind it is cell-based. To be noted: read-out: Activity.
In data set [3] the test system is HepG2. Briefly: Cytotoxicity against human HepG2 cells assessed as reduction in cell viability at 50 uM incubated for 72 hrs by Celltiter-Glo assay. To be noted: hepg2, 72 h. It counts as cell-based. (In general: ATP-based viability assays read luminescence as a measure of living cells.)
Data set [4] relates to HepG2. Briefly: Cytotoxicity against human HepG2 cells assessed as reduction in cell viability at 10 uM incubated for 72 hrs by Celltiter-Glo assay. It counts as cell-based. To be noted: hepg2, 72 h.
The next data set deals with CCRF-CEM. Briefly: Cytotoxicity against human CCRF-CEM cells assessed as reduction in cell viability at 10 uM incubated for 72 hrs by Celltiter-Glo assay. In kind it is cell-based.
Data set [5] concerns NHDF. The experiment in a line: Cytotoxicity against human NHDF cells assessed as reduction in cell viability incubated for 72 hrs by Celltiter-Glo assay. In kind it is cell-based.
A short description of data set [6]: Selectivity for antimalarial activity against Plasmodium falciparum over cytotoxicity against human HepG2 cells. Particulars: read-out: Selectivity Index. It counts as toxicity, cell-based.
Data set [7] relates to HepG2. Briefly: Cytotoxicity against human HepG2 cells assessed as reduction in cell viability incubated for 72 hrs by Celltiter-Glo assay. It counts as cell-based. To be noted: HepG2, 72 h.
Data set [8] relates to Plasmodium falciparum. The experiment in a line: Antimalarial activity against asexual stage of chloroquine-sensitive Plasmodium falciparum D6 infected in human erythrocytes assessed as inhibition of parasite growth measured after 96 hrs by [3H]-hypoxanthine incorporation assay. It counts as functional, organism-based.
Another data set concerns HeLa S3. Briefly: Cytotoxicity against human HeLa S3 cells assessed as reduction in cell viability at 10 uM incubated for 72 hrs by Celltiter-Glo assay. It counts as cell-based. To be noted: hela s3, 72 h.
A further data set has as its system HL-60. The experiment in a line: Cytotoxicity against human HL60 cells assessed as reduction in cell viability at 10 uM incubated for 72 hrs by Celltiter-Glo assay. In kind it is cell-based. Particulars: hl-60, 72 h.
Data set [9] in a line: Cytotoxicity against human HepG2 cells assessed as cell viability at 100 uM incubated for 72 hrs by Celltiter-Glo assay. It counts as cell-based. To be noted: read-out: Activity.
Data set [10] concerns NHDF. The experiment in a line: Cytotoxicity against human NHDF cells assessed as reduction in cell viability at 10 uM incubated for 72 hrs by Celltiter-Glo assay. In kind it is cell-based.
A short description of data set [11]: Selectivity for antimalarial activity against Plasmodium falciparum over cytotoxicity against human NHDF cells. It counts as toxicity, cell-based. To be noted: read-out: Selectivity Index.
Data set [12] deals with NHDF. Briefly: Cytotoxicity against human NHDF cells assessed as reduction in cell viability at 50 uM incubated for 72 hrs by Celltiter-Glo assay. It counts as cell-based.

Each structure is given as a SMILES string. Bounds are passed on as bounds.

Regarding `CCOC(=O)[C@H](Cc1ccccc1)NP(=O)(CCN1CCC[C@H]1Cn1cnc2c(=O)[nH]cnc21)N[C@@H](Cc1ccccc1)C(=O)OCC`, the IC50 in the data set with Plasmodium falciparum [1] was 6.3 µM; in the data set on NHDF [5] it was 184 µM; in the data set with HepG2 [7], above 250 µM; in the data set on Plasmodium falciparum [8], 4.1 µM. Besides, the viability at 72 h, 100 µM in [2] amounted to 117%; in data set [9], 91%. Besides, the Activity entry in the data set with HepG2 [3], in the data set with HepG2 [4], in the data set on CCRF-CEM, in the data set with HeLa S3, in the data set with HL-60 and in the data set with NHDF [10] was “Non-Toxic” throughout. In addition, the Activity entry in the data set on NHDF [12] is “Non-Toxic”. Besides, the selectivity ratio in data set [6] and in data set [11] was above 29 each time.
For `CCOC(=O)[C@H](Cc1ccccc1)NP(=O)(CCN1CCC[C@H]1Cn1cnc2c(=O)[nH]c(N)nc21)N[C@@H](Cc1ccccc1)C(=O)OCC`, the IC50 with Plasmodium falciparum [1] is 2.5 µM; in the data set with NHDF [5], 306 µM; in the data set with HepG2 [7] it was above 250 µM; in the data set with Plasmodium falciparum [8], 7.2 µM. For the same molecule, the results for the viability at 72 h, 100 µM in data set [2] and in data set [9] were 97% and 98%, respectively. In addition, the Activity result in the data set with HepG2 [3], in the data set with HepG2 [4], with CCRF-CEM, with HeLa S3, in the data set with HL-60 and with NHDF [10] was “Non-Toxic” in each case. The Activity result in the data set on NHDF [12] is on record as “Non-Toxic”. In addition, the selectivity ratio in data set [6] and in [11] was above 35 in each case.
